Test system: bone cells (line UMR 106 or G 292)
Assay: fixation of calcium in the extra cellular matrix of cultured bone cells (atomic spectrophotometry)
Type: cell-based
Details: for amount of fixed calcium in the extra cellular matrix of the osteoblasts: cells treated with 10 µg of calcium inhibitor, same conditions
Procedure: In the same conditions the cells are treated with 10 µg Verapamil or any other inhibitor of the calcium such as Cinchonine or Diltiazem.

Row | Molecule | amount of fixed calcium in the extra cellular matrix of the osteoblasts | fixed calcium (10 ng of Maltadiolone, in comparison with the untreated control cells, line UMR 106 or G 292) | fixative activity on the calcium (cells treated with both 1 μg IL-1 and 10 μg Maltadiolone) | concentration from which recovery of the fixation of calcium on the extra cellular matrix may be detected (same conditions as previously (IL-1 treated cells)) [ng/mL]
1 | COc1ccc([C@@H]2Sc3ccccc3N(CCN(C)C)C(=O)[C@@H]2OC(C)=O)cc1 [Diltiazem] | equivalent to that of the cells treated with interleukin | – | – | –
2 | C=C[C@H]1C[N@@]2CC[C@H]1C[C@@H]2[C@@H](O)c1ccnc2ccccc12 [Cinchonine] | equivalent to that of the cells treated with interleukin | – | – | –
3 | COc1ccc(CCN(C)CCCC(C#N)(c2ccc(OC)c(OC)c2)C(C)C)cc1OC (stereo not drawn) [Verapamil] | equivalent to that of the cells treated with interleukin | – | – | –
4 | 2-oxo 3-hydroxy 25-ethylidene A-nor cholest-3-ene [Maltadiolone] | – | increase in the fixed calcium | restore a fixative activity on the calcium, equivalent to that of cells untreated with a calcium inhibitor | ≥ 10
